In patent US20240246937A1 (MERCK SHARP & DOHME LLC, priority 2021, published 2024):

Target: recombinant IL4I1 (Homo sapiens (Human), UniProt Q96RQ9)
Test: IL4I1 Enzymatic Assay (Amplex Red/HRP coupled fluorescence detection of H2O2)
Format: biochemical
Conditions: 240 min; recombinant IL4I1, four-hour pre-incubation with compound
Summary of the method: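 Ten-point, 1:3 compound titrations were fitted by four-parameter sigmoidal regression to give EC50. Resorufin fluorescence (544/590 nm) from Amplex Red/HRP-coupled H2O2 detection was read 120 min after adding 1 mM each aromatic amino acid to 1 nM IL4I1, following a 4 h compound pre-incubation in pH 7.0 Hepes buffer.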

recombinant IL4I1, sequence (Q96RQ9 22-567): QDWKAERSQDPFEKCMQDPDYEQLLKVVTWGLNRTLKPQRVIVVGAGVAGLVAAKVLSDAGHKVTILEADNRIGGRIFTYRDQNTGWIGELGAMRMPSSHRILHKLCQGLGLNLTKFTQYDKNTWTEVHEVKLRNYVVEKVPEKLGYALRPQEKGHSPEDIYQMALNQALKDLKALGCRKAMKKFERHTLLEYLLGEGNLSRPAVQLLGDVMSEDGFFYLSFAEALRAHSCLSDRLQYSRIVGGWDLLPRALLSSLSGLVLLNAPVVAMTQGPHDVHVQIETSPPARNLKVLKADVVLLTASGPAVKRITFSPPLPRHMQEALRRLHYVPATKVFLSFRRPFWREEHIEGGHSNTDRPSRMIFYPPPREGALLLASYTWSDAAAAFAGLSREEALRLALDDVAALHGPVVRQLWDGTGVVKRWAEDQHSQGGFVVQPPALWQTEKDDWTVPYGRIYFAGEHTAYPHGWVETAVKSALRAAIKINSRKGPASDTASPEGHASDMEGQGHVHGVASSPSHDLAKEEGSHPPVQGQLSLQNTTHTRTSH

Row | Compound | EC50 [nM]
1 | N#CC1(n2ccn(Cc3cc(-c4cccnc4)on3)c(=O)c2=O)CC1 [Example 210, 1-(2,3-dioxo-4-((5-(pyridin-3-yl)isoxazol-3-yl)methyl)-3,4-dihydropyrazin-1(2H)-yl)cyclopropane-1-carbonitrile] | 92
2 | O=c1c(=O)n(C23CC(F)(C2)C3)ccn1Cc1cc(-c2cccnc2)on1 [Example 211, 1-(3-fluorobicyclo[1.1.1]pentan-1-yl)-4-((5-(pyridin-3-yl)isoxazol-3-yl)methyl)-1,4-dihydropyrazine-2,3-dione] | 61
3 | O=c1c(=O)n(C23CC(F)(C2)C3)ccn1Cc1ccc(-c2ccccn2)nn1 [Example 214, 1-(3-fluorobicyclo[1.1.1]pentan-1-yl)-4-((6-(pyridin-2-yl)pyridazin-3-yl)methyl)-1,4-dihydropyrazine-2,3-dione] | 56
4 | O=c1c(=O)n(C23CC(F)(C2)C3)ccn1Cc1ccc(-c2cccnc2)nn1 [Example 215, 1-(3-fluorobicyclo[1.1.1]pentan-1-yl)-4-((6-(pyridin-3-yl)pyridazin-3-yl)methyl)-1,4-dihydropyrazine-2,3-dione] | 57
5 | O=c1c(=O)n(C2(CF)CC2)ccn1Cc1ccc(-n2nccn2)cn1 [Example 216, 1-((5-(2H-1,2,3-triazol-2-yl)pyridin-2-yl)methyl)-4-(1-(fluoromethyl)cyclopropyl)-1,4-dihydropyrazine-2,3-dione] | 60
6 | O=c1c(=O)n(C2(CF)CC2)ccn1Cc1ccc(-n2cccn2)cn1 [Example 218, 1-((5-(1H-pyrazol-1-yl)pyridin-2-yl)methyl)-4-(1-(fluoromethyl)cyclopropyl)-1,4-dihydropyrazine-2,3-dione] | 56
7 | O=c1c(=O)n(C23CC(F)(C2)C3)ccn1Cc1ccc(-n2cccn2)cn1 [Example 219, 1-((5-(1H-pyrazol-1-yl)pyridin-2-yl)methyl)-4-(3-fluorobicyclo[1.1.1]pentan-1-yl)-1,4-dihydropyrazine-2,3-dione] | 59
8 | O=c1c(=O)n(C23CC(F)(C2)C3)ccn1Cc1ccc(-n2cccn2)nc1 [Example 220, 1-((6-(1H-pyrazol-1-yl)pyridin-3-yl)methyl)-4-(3-fluorobicyclo[1.1.1]pentan-1-yl)-1,4-dihydropyrazine-2,3-dione] | 50
9 | N#CC1(n2ccn(Cc3cc(-c4cccnc4)no3)c(=O)c2=O)CC1 [Example 222, 1-(2,3-dioxo-4-((3-(pyridin-3-yl)isoxazol-5-yl)methyl)-3,4-dihydropyrazin-1(2H)-yl)cyclopropane-1-carbonitrile] | 316
10 | O=c1c(=O)n(C23CC(F)(C2)C3)ccn1Cc1cc(-c2cccnc2)no1 [Example 224, 1-(3-fluorobicyclo[1.1.1]pentan-1-yl)-4-((3-(pyridin-3-yl)isoxazol-5-yl)methyl)-1,4-dihydropyrazine-2,3-dione] | 101
11 | O=C1C(=O)N(C23CC(F)(C2)C3)CCN1Cc1ccc(-c2ccccn2)nn1 [Example 226] | 78
12 | O=c1c(=O)n(C2(CF)CC2)ccn1Cc1ccc(-c2cccnc2)nn1 [Example 227, 1-(1-(fluoromethyl)cyclopropyl)-4-((6-(pyridin-3-yl)pyridazin-3-yl)methyl)-1,4-dihydropyrazine-2,3-dione] | 69
13 | O=c1c(=O)n(C23CC(F)(C2)C3)ccn1Cc1ccc(-c2ccccn2)cn1 [Example 229, 1-([2,3′-bipyridin]-6′-ylmethyl)-4-(3-fluorobicyclo[1.1.1]pentan-1-yl)-1,4-dihydropyrazine-2,3-dione] | 54
14 | O=c1c(=O)n(C23CC(F)(C2)C3)ccn1Cc1ccc(-n2ccnn2)nc1 [Example 230, 1-((6-(1H-1,2,3-triazol-1-yl)pyridin-3-yl)methyl)-4-(3-fluorobicyclo[1.1.1]pentan-1-yl)-1,4-dihydropyrazine-2,3-dione] | 91
15 | O=C1C(=O)N(C23CC(F)(C2)C3)CCN1Cc1cc(-c2ccccn2)no1 [Example 232, 1-(3-fluorobicyclo[1.1.1]pentan-1-yl)-4-((3-(pyridin-2-yl)isoxazol-5-yl)methyl)piperazine-2,3-dione] | 82
16 | O=c1c(=O)n(C2(CF)CC2)ccn1Cc1ccc(-c2nccs2)nn1 [Example 233, 1-(1-(fluoromethyl)cyclopropyl)-4-((6-(thiazol-2-yl)pyridazin-3-yl)methyl)-1,4-dihydropyrazine-2,3-dione] | 54
17 | O=C1C(=O)N(C23CC(F)(C2)C3)CCN1Cc1ccc(-n2ccnn2)nc1 [Example 236, 1-((6-(1H-1,2,3-triazol-1-yl)pyridin-3-yl)methyl)-4-(3-fluorobicyclo[1.1.1]pentan-1-yl)piperazine-2,3-dione] | 533
18 | O=C1C(=O)N(C23CC(F)(C2)C3)CCN1Cc1ccc(-n2cccn2)nc1 [Example 237, 1-((6-(1H-pyrazol-1-yl)pyridin-3-yl)methyl)-4-(3-fluorobicyclo[1.1.1]pentan-1-yl)piperazine-2,3-dione] | 346
19 | O=c1c(=O)n(C2(CF)CC2)ccn1Cc1ccc(-c2ccccn2)nn1 [Example 239, 1-(1-(fluoromethyl)cyclopropyl)-4-((6-(pyridin-2-yl)pyridazin-3-yl)methyl)-1,4-dihydropyrazine-2,3-dione] | 82
20 | O=C1C(=O)N(C23CC(F)(C2)C3)CCN1Cc1cc(-c2cccnc2)no1 [Example 240, 1-(3-fluorobicyclo[1.1.1]pentan-1-yl)-4-((3-(pyridin-3-yl)isoxazol-5-yl)methyl)piperazine-2,3-dione] | 995

The next molecules have a lower EC50 than those just listed; values first:

Row | EC50 [nM] | Compound
21 | 10 | O=c1c(=O)n(C23CC(C2)C3)ccn1Cc1cc(-c2cccnc2)on1 [Example 212, 1-(bicyclo[1.1.1]pentan-1-yl)-4-((5-(pyridin-3-yl)isoxazol-3-yl)methyl)-1,4-dihydropyrazine-2,3-dione]
22 | 29 | O=c1c(=O)n(C23CC(F)(C2)C3)ccn1Cc1ccc(-c2cncs2)nn1 [Example 213, 1-(3-fluorobicyclo[1.1.1]pentan-1-yl)-4-((6-(thiazol-5-yl)pyridazin-3-yl)methyl)-1,4-dihydropyrazine-2,3-dione]
23 | 42 | O=c1c(=O)n(C23CC(F)(C2)C3)ccn1Cc1ccc(-n2nccn2)cn1 [Example 217, 1-((5-(2H-1,2,3-triazol-2-yl)pyridin-2-yl)methyl)-4-(3-fluorobicyclo[1.1.1]pentan-1-yl)-1,4-dihydropyrazine-2,3-dione]
24 | 14 | CC1(n2ccn(Cc3cc(-c4cccnc4)no3)c(=O)c2=O)CC1 [Example 221, 1-(1-methylcyclopropyl)-4-((3-(pyridin-3-yl)isoxazol-5-yl)methyl)-1,4-dihydropyrazine-2,3-dione]
25 | 10 | O=c1c(=O)n(C23CC(C2)C3)ccn1Cc1cc(-c2cccnc2)no1 [Example 223, 1-(bicyclo[1.1.1]pentan-1-yl)-4-((3-(pyridin-3-yl)isoxazol-5-yl)methyl)-1,4-dihydropyrazine-2,3-dione]
26 | 41 | O=c1c(=O)n(C2(CF)CC2)ccn1Cc1cc(-c2ccccn2)no1 [Example 225, 1-(1-(fluoromethyl)cyclopropyl)-4-((3-(pyridin-2-yl)isoxazol-5-yl)methyl)-1,4-dihydropyrazine-2,3-dione]
27 | 23 | O=C1C(=O)N(C23CC(F)(C2)C3)CCN1Cc1ccc(-c2ccccc2F)nn1 [Example 228, 1-(3-fluorobicyclo[1.1.1]pentan-1-yl)-4-((6-(2-fluorophenyl)pyridazin-3-yl)methyl)piperazine-2,3-dione]
28 | 22 | O=c1c(=O)n(C2(CF)CC2)ccn1Cc1ccc(-n2cccn2)nc1 [Example 231, 1-((6-(1H-pyrazol-1-yl)pyridin-3-yl)methyl)-4-(1-(fluoromethyl)cyclopropyl)-1,4-dihydropyrazine-2,3-dione]
29 | 40 | O=C1C(=O)N(C23CC(F)(C2)C3)CCN1Cc1ccc(-c2nccs2)nn1 [Example 234, 1-(3-fluorobicyclo[1.1.1]pentan-1-yl)-4-((6-(thiazol-2-yl)pyridazin-3-yl)methyl)piperazine-2,3-dione]
30 | 18 | O=c1c(=O)n(C2(CF)CC2)ccn1Cc1ccc(-n2ccnn2)nc1 [Example 235, 1-((6-(1H-1,2,3-triazol-1-yl)pyridin-3-yl)methyl)-4-(1-(fluoromethyl)cyclopropyl)-1,4-dihydropyrazine-2,3-dione]
31 | 29 | O=c1c(=O)n(C2(CF)CC2)ccn1Cc1cc(-c2ccccn2)on1 [Example 238, 1-(1-(fluoromethyl)cyclopropyl)-4-((5-(pyridin-2-yl)isoxazol-3-yl)methyl)-1,4-dihydropyrazine-2,3-dione]
32 | 40 | O=C1C(=O)N(C23CC(F)(C2)C3)CCN1Cc1ccc(-c2cccnc2)nn1 [Example 241, 1-(3-fluorobicyclo[1.1.1]pentan-1-yl)-4-((6-(pyridin-3-yl)pyridazin-3-yl)methyl)piperazine-2,3-dione]
33 | 32 | O=c1c(=O)n(C2(CF)CC2)ccn1Cc1ccc(-c2ccccc2F)nn1 [Example 242, 1-(1-(fluoromethyl)cyclopropyl)-4-((6-(2-fluorophenyl)pyridazin-3-yl)methyl)-1,4-dihydropyrazine-2,3-dione]
34 | 30 | O=C1C(=O)N(C23CC(F)(C2)C3)CCN1Cc1ccc(-c2cncs2)nn1 [Example 243, 1-(3-fluorobicyclo[1.1.1]pentan-1-yl)-4-((6-(thiazol-5-yl)pyridazin-3-yl)methyl)piperazine-2,3-dione]
35 | 45 | O=C1C(=O)N(C23CC(F)(C2)C3)CCN1Cc1ccc(-n2nccn2)cn1 [Example 244, 1-((5-(2H-1,2,3-triazol-2-yl)pyridin-2-yl)methyl)-4-(3-fluorobicyclo[1.1.1]pentan-1-yl)piperazine-2,3-dione]
36 | 43 | O=c1c(=O)n(C2(CF)CC2)ccn1Cc1ccc(-c2cncs2)nn1 [Example 245, 1-(1-(fluoromethyl)cyclopropyl)-4-((6-(thiazol-5-yl)pyridazin-3-yl)methyl)-1,4-dihydropyrazine-2,3-dione]
